Measured values taken from patent publication US12415832B2, “B-catenin/B-cell Lymphoma 9 protein-protein interaction inhibiting peptidomimetics” (University of South Florida, priority 2019, dated 2025).
Where two headings read alike, the source gives them in different places.

How the values were obtained:
β-catenin = molecular target: T1, β-catenin (Homo sapiens, UniProt P35222); test: FP assay, binding of peptides with β-catenin (Kd); conditions: for Kd: fluorescence polarization, 50 nM FITC labeled peptide, 1×PBS
T1 sequence (P35222 1-781): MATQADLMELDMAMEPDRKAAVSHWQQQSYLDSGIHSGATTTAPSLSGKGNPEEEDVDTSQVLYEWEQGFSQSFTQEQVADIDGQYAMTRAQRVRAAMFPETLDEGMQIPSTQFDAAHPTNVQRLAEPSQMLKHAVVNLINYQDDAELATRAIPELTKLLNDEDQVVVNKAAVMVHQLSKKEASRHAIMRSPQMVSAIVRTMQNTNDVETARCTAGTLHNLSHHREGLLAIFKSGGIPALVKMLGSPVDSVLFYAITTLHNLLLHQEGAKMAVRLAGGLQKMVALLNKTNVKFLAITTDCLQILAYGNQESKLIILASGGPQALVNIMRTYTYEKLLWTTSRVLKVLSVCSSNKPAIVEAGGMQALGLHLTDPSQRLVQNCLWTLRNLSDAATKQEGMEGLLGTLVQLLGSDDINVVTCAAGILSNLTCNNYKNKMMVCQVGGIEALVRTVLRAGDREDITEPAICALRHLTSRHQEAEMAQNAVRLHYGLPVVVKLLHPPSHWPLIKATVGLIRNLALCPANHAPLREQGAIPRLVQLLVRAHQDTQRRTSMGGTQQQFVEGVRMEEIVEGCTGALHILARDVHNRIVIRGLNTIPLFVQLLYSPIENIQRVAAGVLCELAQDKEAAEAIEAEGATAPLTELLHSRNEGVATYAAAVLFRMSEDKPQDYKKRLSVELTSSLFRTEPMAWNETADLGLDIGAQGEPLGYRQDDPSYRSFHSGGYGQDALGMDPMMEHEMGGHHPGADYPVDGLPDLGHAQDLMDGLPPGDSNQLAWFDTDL

β-catenin/BCL9 PPI = molecular target: T2, β-catenin/BCL9 PPI (Homo sapiens, UniProt P35222); test: AlphaScreen competitive inhibition assay of β-catenin/BCL9 PPI; type: binding; conditions: for IC50 / Ki: AlphaScreen, mean ± SD; for IC50: 5 nM biotinylated BCL9, 40 nM His6-tagged FL-β-catenin; for Ki: Ki derived from IC50 by method of Nikolovska-Coleska et al.
T2 construct: 40 nM His6-tagged FL-β-catenin
T2 sequence (P35222 1-781): T1 sequence (P35222 1-781)
Description: For the competitive inhibition assays of β-catenin/BCL9 PPI, the negative control (equivalent to 0% inhibition) refers to 5.0 nM biotinylated BCL9, 40 nM His6-tagged FL-β-catenin, and 10 μg/mL of donor and acceptor beads in a final volume of 25 μL of assay buffer, but no tested inhibitor present. The positive control (equivalent to 100% inhibition) refers to 5.0 nM biotinylated BCL9 and 10 μg/mL of donor and acceptor beads in a final volume of 25 μL of assay buffer. For the β-catenin/BCL9 assay, 5 nM biotinylated BCL9 and 40 nM His6-tagged FL-β-catenin were incubated in assay buffer at 4° C. for 30 min. Different concentrations of the tested inhibitor were added and incubated in 20 μL of assay buffer at 4° C. for another 1 h. All of the above assay plates were covered and gently mixed on an orbital shaker. The donor and acceptor beads were then added to the plates to a final concentration of 10 μg/mL in 25 μL of assay buffer. The mixture was incubated for 1 h at 4° C. before detection. The IC50 value was determined by nonlinear least-squares analysis of GraphPad Prism 5.0. The Ki values were derived from the IC50 values using a method reported by Nikolovska-Coleska et al. The assays were conducted under the conditions reported by Nikolovska-Coleska et al.'s equation for determining the Ki values. All of the experiments were performed in triplicate. The results were expressed as mean±standard deviation.

[1] = system: Wnt/β-catenin signaling transactivation (TOPFlash); test: Wnt-responsive TOPFlash luciferase reporter assay in SW480 cells
Description: Wnt-specific TOPFlash/FOPFlash luciferase reporter assays were used to evaluate the effects of these compounds on β-catenin-dependent transcription. For the TOPFlash reporter construct, the firefly luciferase reporter gene was placed downstream of three wild-type Tcf binding sites. For the FOPFlash reporter construct, the firefly luciferase reporter gene was place downstream of three mutant Tcf binding sites. The high expression of firefly luciferase in TOPFlash assays was controlled by tandem Tcf binding sites. The renilla luciferase reporter construct (pCMV-RL) was used as the internal control to normalize luciferase reporter signals and eliminate systematic errors such as cell viability, transfection effect, etc.
SW480 cells were co-transfected with 60 ng of the TOPFlash or FOPFlash firefly luciferase reporter gene and 40 ng of renilla luciferase pCMV-RL normalization reporter. Cells were cultured in DMEM and 10% FBS at 37° C. for 24 h, and different concentrations of inhibitors or DMSO were added. After 24 h, the luciferase reporter activity was measured using the Dual-Glo system (E2940, Promega). Normalized luciferase activity in response to the treatment with inhibitors was compared with that obtained from the cells treated with DMSO. Experiments were performed in triplicate.

SW480 cell = type: cell-based; conditions: for IC50: 72 h
Description: Colorectal cancer cell lines SW480 were seeded in 96-well plates at 5×10^3 cells/well, maintained overnight at 37° C., and incubated in the presence of inhibitors at various concentrations. Cell viability was monitored after 72 h using a freshly prepared mixture of one-part phenazine methosulfate (PMS, Sigma) solution (0.92 mg/mL) and 19 parts MTs agent (3-(4,5-dimethylthiazol-2-yl)-5-(3-carboxymethoxyphenyl)-2-(4-sulfophenyl)-2H-tetrazolium, inner salt, Promega) solution (2 mg/mL). Cells were incubated in 10 μL of this solution at 37° C. for 3 h, and A490 was measured. The effect of each compound is expressed as the concentration required to reduce A490 by 50% (IC50) relative to vehicle-treated cells. Experiments were performed in triplicate and repeated for three times.

A549 cell = type: cell-based; conditions: 72 h

Row | Molecule | binding activity, in words (β-catenin) | Kd (β-catenin) [nM] | IC50 (β-catenin/BCL9 PPI) [µM] | Ki (β-catenin/BCL9 PPI) [µM] | TOPFlash luciferase activity, result in words [1] | IC50 (SW480 cell; SW480 cell, hyperactive β-catenin signaling, read-out: MTS IC50 ± SD) [µM] | IC50 (A549 cell) [µM] | improvement of Kd compared to the peptide 1 (β-catenin) [fold] | IC50 (SW480 cell) [µM] | effect on SW480 cell proliferation, in words (SW480 cell; MTS) | improvement of IC50 compared to the peptide 1 (β-catenin/BCL9 PPI) [fold] | improvement of Ki compared to the peptide 1 (β-catenin/BCL9 PPI) [fold] | ability to inhibit β-catenin/BCL9 PPI, in words (β-catenin/BCL9 PPI) | decrease in binding affinity relative to 2 (β-catenin; Ala substitution)
1 | CCC(C)[C@@H](CN(CC(=O)N[C@@H](C)CN(CC(=O)N[C@@H](CC(C)C)CN(CC(N)=O)S(=O)(=O)Cc1ccccc1)S(=O)(=O)CC(C)C)S(C)(=O)=O)NC(=O)CN(C[C@H](CCCNC(=N)N)NC(=O)CN(C[C@H](CC(C)C)NC(=O)CN(C[C@@H](NC(=O)CN(C[C@H](CC(C)C)NC(=O)CN(C[C@H](CCCNC(=N)N)NC(=O)CN(C[C@H](CCCNC(=N)N)NC(=O)CN(C[C@H](CCC(=O)O)NC(C)=O)S(=O)(=O)CCN)S(C)(=O)=O)S(C)(=O)=O)S(=O)(=O)CCN)C(C)O)S(=O)(=O)CC(C)C)S(=O)(=O)CCN)S(=O)(=O)CC(C)C (stereo partly shown) [Peptide 11] | inferior binding activity | 8260 | 17.4 ± 3.35 | 15.7 ± 3 | – | – | – | – | – | – | – | – | – | –
2 | Ac-SQEQLEHRERSLQTLRDIQRMLF-NH2 [Peptide 1, reference compound] | – | 970 | 1.28 | 1.13 | did not show any activity | > 200 | > 200 | – | – | – | – | – | – | –
3 | CC(=O)N[C@@H](CCC(=O)O)CN(CC(=O)N[C@@H](CCCNC(=N)N)CN(CC(=O)N[C@@H](CCCNC(=N)N)CN(CC(=O)N[C@@H](CC(C)C)CN(CC(=O)N[C@H](CN(CC(=O)N[C@@H](CC(C)C)CN(CC(=O)N[C@@H](CCCNC(=N)N)CN(CC(=O)N[C@@H](C)CN(CC(=O)N[C@@H](CC(C)C)CN(CC(=O)N[C@@H](CC(C)C)CN(CC(N)=O)S(=O)(=O)Cc1ccccc1)S(=O)(=O)CC(C)C)S(C)(=O)=O)S(=O)(=O)CC(C)C)S(=O)(=O)CCN)S(=O)(=O)CC(C)C)C(C)O)S(=O)(=O)CCN)S(C)(=O)=O)S(C)(=O)=O)S(=O)(=O)CCN (stereo partly shown) [Peptide 6] | – | 160 | 0.54 | 0.46 | – | – | 150 ± 19.2 | ~6 | 65.4 ± 7.06 | relatively weak activity | ~3 | ~3 | – | –
4 | CC(=O)N[C@@H](CCC(=O)O)CN(CC(=O)N[C@@H](CCCNC(=N)N)CN(CC(=O)N[C@@H](CCCNC(=N)N)CN(CC(=O)N[C@@H](CC(C)C)CN(CC(=O)N[C@H](CN(CC(=O)N[C@@H](CC(C)C)CN(CC(=O)N[C@@H](CCCNC(=N)N)CN(CC(=O)N[C@@H](CCCNC(=N)N)CN(CC(=O)N[C@@H](CC(C)C)CN(CC(=O)N[C@@H](CC(C)C)CN(CC(N)=O)S(=O)(=O)Cc1ccccc1)S(=O)(=O)CC(C)C)S(C)(=O)=O)S(=O)(=O)CC(C)C)S(=O)(=O)CCN)S(=O)(=O)CC(C)C)C(C)O)S(=O)(=O)CCN)S(C)(=O)=O)S(C)(=O)=O)S(=O)(=O)CCN (stereo partly shown) [Peptide 9] | inferior binding activity | 5140 | 12.9 ± 2.15 | 11.6 ± 1.92 | – | – | – | – | – | – | – | – | – | –
5 | CCC(C)[C@@H](CN(CC(=O)N[C@@H](CC(C)C)CN(CC(=O)N[C@@H](CC(C)C)CN(CC(N)=O)S(=O)(=O)Cc1ccccc1)S(=O)(=O)CC(C)C)S(C)(=O)=O)NC(=O)CN(C[C@H](CCCNC(=N)N)NC(=O)CN(C[C@H](C)NC(=O)CN(C[C@@H](NC(=O)CN(C[C@H](CC(C)C)NC(=O)CN(C[C@H](CCCNC(=N)N)NC(=O)CN(C[C@H](CCCNC(=N)N)NC(=O)CN(C[C@H](CCC(=O)O)NC(C)=O)S(=O)(=O)CCN)S(C)(=O)=O)S(C)(=O)=O)S(=O)(=O)CCN)C(C)O)S(=O)(=O)CC(C)C)S(=O)(=O)CCN)S(=O)(=O)CC(C)C (stereo partly shown) [Peptide 5] | – | 1970 | 2.71 | 2.43 | – | – | 230 ± 27.5 | – | 132 ± 18.9 | – | – | – | – | –
6 | CCC(C)[C@@H](CN(CC(=O)N[C@@H](CC(C)C)CN(CC(=O)N[C@@H](C)CN(CC(N)=O)S(=O)(=O)Cc1ccccc1)S(=O)(=O)CC(C)C)S(C)(=O)=O)NC(=O)CN(C[C@H](CCCNC(=N)N)NC(=O)CN(C[C@H](C)NC(=O)CN(C[C@@H](NC(=O)CN(C[C@H](CC(C)C)NC(=O)CN(C[C@H](CCCNC(=N)N)NC(=O)CN(C[C@H](C)NC(=O)CN(C[C@H](CCC(=O)O)NC(C)=O)S(C)(=O)=O)S(C)(=O)=O)S(C)(=O)=O)S(=O)(=O)CCN)C(C)O)S(=O)(=O)CC(C)C)S(=O)(=O)CCN)S(=O)(=O)CC(C)C (stereo partly shown) [Peptide 12] | – | > 10000 | > 10 | > 10 | – | – | – | – | – | – | – | – | completely losing their ability to inhibit β-catenin/BCL9 PPI | –
7 | CCC(C)[C@@H](CN(CC(=O)N[C@@H](CC(C)C)CN(CC(=O)N[C@@H](CC(C)C)CN(CC(N)=O)S(=O)(=O)Cc1ccccc1)S(=O)(=O)CC(C)C)S(=O)(=O)CC(C)C)NC(=O)CN(C[C@H](CCCNC(=N)N)NC(=O)CN(C[C@H](CC(C)C)NC(=O)CN(C[C@@H](NC(=O)CN(C[C@H](CC(C)C)NC(=O)CN(C[C@H](CCCNC(=N)N)NC(=O)CN(C[C@H](CCCNC(=N)N)NC(=O)CN(C[C@H](CCC(=O)O)NC(C)=O)S(=O)(=O)CCN)S(C)(=O)=O)S(C)(=O)=O)S(=O)(=O)CCN)C(C)O)S(=O)(=O)CC(C)C)S(=O)(=O)CCN)S(=O)(=O)CC(C)C (stereo partly shown) [Peptide 10] | decreased binding activity | 2510 | 4.07 ± 0.59 | 3.65 ± 0.51 | – | – | – | – | – | – | – | – | – | –
8 | CCC(C)[C@@H](CN(CC(=O)N[C@@H](CC(C)C)CN(CC(=O)N[C@@H](CC(C)C)CN(CC(N)=O)S(=O)(=O)Cc1ccccc1)S(=O)(=O)CC(C)C)S(C)(=O)=O)NC(=O)CN(C[C@H](CCCNC(=N)N)NC(=O)CN(C[C@H](CC(C)C)NC(=O)CN(C[C@@H](NC(=O)CN(C[C@H](CC(C)C)NC(=O)CN(C[C@H](CCCNC(=N)N)NC(=O)CN(C[C@H](CCCNC(=N)N)NC(=O)CN(C[C@H](CCC(=O)O)NC(C)=O)S(=O)(=O)CCN)S(C)(=O)=O)S(C)(=O)=O)S(=O)(=O)CCN)C(C)O)S(=O)(=O)CC(C)C)S(=O)(=O)CCN)S(C)(=O)=O (stereo partly shown) [Peptide 8] | inferior binding activity | 3890 | 8.01 ± 0.82 | 7.2 ± 0.72 | – | – | – | – | – | – | – | – | – | –
9 | CCC(C)[C@@H](CN(CC(=O)N[C@@H](CC(C)C)CN(CC(=O)N[C@@H](C)CN(CC(N)=O)S(=O)(=O)Cc1ccccc1)S(=O)(=O)CC(C)C)S(C)(=O)=O)NC(=O)CN(C[C@H](CCCNC(=N)N)NC(=O)CN(C[C@H](CC(C)C)NC(=O)CN(C[C@@H](NC(=O)CN(C[C@H](CC(C)C)NC(=O)CN(C[C@H](CCCNC(=N)N)NC(=O)CN(C[C@H](CCCNC(=N)N)NC(=O)CN(C[C@H](CCC(=O)O)NC(C)=O)S(=O)(=O)CCN)S(C)(=O)=O)S(C)(=O)=O)S(=O)(=O)CCN)C(C)O)S(=O)(=O)CC(C)C)S(=O)(=O)CCN)S(=O)(=O)CC(C)C (stereo partly shown) [Peptide 7] | – | 700 | 1 ± 0.1 | 0.89 ± 0.08 | – | – | 120 ± 13.6 | – | 46.6 ± 5.57 | – | – | – | – | about 1.5 fold
